This note sets out measurements from patent publication US20250388574A1, “HETEROCYCLIC COMPOUNDS AS TRIGGERING RECEPTOR EXPRESSED ON MYELOID CELLS 2 AGONISTS AND METHODS OF USE” (AMGEN INC., priority 2020, published 2025).

Each structure is given as a SMILES string.

This experiment deals with hTREM2 (Homo sapiens, UniProt Q9NZC2). Briefly: Phospho-Syk AlphaScreen/AlphaLISA assay in TREM2 and DAP12 overexpressing HEK293 cells (Example A1). Format: cell-based. Also noted: expressed in transfected cells. Conditions: HEK293 cells; for EC50: read-out: hTREM2 EC50. The essentials: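 Single-cell-cloned HEK293 stably overexpressing TREM2 and DAP12, plated 20,000 cells/well for 20 h, then exposed to compounds (1% DMSO) 45 min at room temperature. Lysates probed for phospho-Syk by AlphaLISA sandwich (anti-pSyk, biotinylated anti-Syk); signal normalized to percent of control (100 nM anti-TREM2 antibody vs isotype) and fitted by 4-parameter logistic.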
Chain of hTREM2 (Q9NZC2 19-230): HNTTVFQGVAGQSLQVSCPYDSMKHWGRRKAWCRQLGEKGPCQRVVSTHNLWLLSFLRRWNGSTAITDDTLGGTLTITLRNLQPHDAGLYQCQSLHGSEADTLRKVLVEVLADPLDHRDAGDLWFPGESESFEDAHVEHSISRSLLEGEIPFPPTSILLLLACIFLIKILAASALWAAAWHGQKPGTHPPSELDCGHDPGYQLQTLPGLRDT
Chain of hTREM2 (O43914 22-113 partner): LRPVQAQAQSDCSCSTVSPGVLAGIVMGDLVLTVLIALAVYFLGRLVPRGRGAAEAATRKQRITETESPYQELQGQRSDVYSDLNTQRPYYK
(Bead proximity is the source of the signal in Alpha formats.)

Regarding `Cc1nc2cc(N3CCO[C@H](c4cnn(C)c4)C3)nc(-c3ccc(Cl)cc3F)c2c(=O)n1C` [Example 189, (R)-5-(4-chloro-2-fluorophenyl)-2,3-dimethyl-7-(2-(1-methyl-1H-pyrazol-4-yl)morpholino)pyrido[4,3-d]pyrimidin-4(3H)-one], the Emax result is given as “++++ (Emax>300)” and the EC50 was 0.05 to 0.5 µM.
As for `CCCn1c(C)nc2cc(N3CCO[C@H](c4ccccc4)C3)nc(-c3ccc(Cl)cc3F)c2c1=O` [Example 190, (R)-5-(4-chloro-2-fluorophenyl)-2-methyl-7-(2-phenylmorpholino)-3-propylpyrido[4,3-d]pyrimidin-4(3H)-one], the Emax entry is “+++ (Emax>200 and ≤300)”; the EC50 is 0.5 to 3 µM.
Regarding `CCCn1c(C)nc2cc(N3CCO[C@H](C(F)F)C3)nc(-c3ccc(Cl)cc3F)c2c1=O` [Example 191, (S)-5-(4-chloro-2-fluorophenyl)-7-(2-(difluoromethyl)morpholino)-2-methyl-3-propylpyrido[4,3-d]pyrimidin-4(3H)-one], the Emax entry is recorded as “++++ (Emax>300)” and the EC50 lay in the range of 0.5 to 3 µM.
In the same order, the values of `CCCn1c(C)nc2cc(N3CCO[C@@H](CF)C3)nc(-c3ccc(Cl)cc3F)c2c1=O` [Example 192, (R)-5-(4-chloro-2-fluorophenyl)-7-(2-(fluoromethyl)morpholino)-2-methyl-3-propylpyrido[4,3-d]pyrimidin-4(3H)-one] are “++++ (Emax>300)” and 0.5 to 3 µM.
Take `CCCn1c(C)nc2cc(N3CCO[C@H](CF)C3)nc(-c3ccc(Cl)cc3F)c2c1=O` [Example 193, (S)-5-(4-chloro-2-fluorophenyl)-7-(2-(fluoromethyl)morpholino)-2-methyl-3-propylpyrido[4,3-d]pyrimidin-4(3H)-one]: the Emax result is “+++ (Emax>200 and ≤300)”; the EC50 was 0.5 to 3 µM.
In the case of `Cc1nc2cc(N3CCO[C@H](C4CC4)C3)nc(-c3ccc(Cl)cc3F)c2c(=O)n1C` [Example 194, (R)-5-(4-chloro-2-fluorophenyl)-7-(2-cyclopropylmorpholino)-2,3-dimethylpyrido[4,3-d]pyrimidin-4(3H)-one], the Emax entry was “+++ (Emax>200 and ≤300)”; the EC50 fell in the range of 3 to 100 µM.
On to `CCCn1c(C)nc2cc(N3CCO[C@H](c4cnn(C)c4)C3)nc(-c3ncc(Cl)cc3C)c2c1=O` [Example 195, (R)-5-(5-chloro-3-methylpyridin-2-yl)-2-methyl-7-(2-(1-methyl-1H-pyrazol-4-yl)morpholino)-3-propylpyrido[4,3-d]pyrimidin-4(3H)-one], for which the Emax result was “+ (Emax>45 and ≤100)”; the EC50 was 3 to 100 µM.
`Cc1nc2cc(N3CCO[C@H](c4cnn(C)c4)C3)nc(-c3ncc(Cl)cc3F)c2c(=O)n1C` [Example 196, (R)-5-(5-chloro-3-fluoropyridin-2-yl)-2,3-dimethyl-7-(2-(1-methyl-1H-pyrazol-4-yl)morpholino)pyrido[4,3-d]pyrimidin-4(3H)-one]: the Emax result was “++++ (Emax>300)” and the EC50 was in the range of 0.5 to 3 µM.
Regarding `CCn1cc([C@@H]2CN(c3cc4nc(C)n(C)c(=O)c4c(-c4ccc(Cl)cc4F)n3)CCO2)cn1` [Example 197, (R)-5-(4-chloro-2-fluorophenyl)-7-(2-(1-ethyl-1H-pyrazol-4-yl)morpholino)-2,3-dimethylpyrido[4,3-d]pyrimidin-4(3H)-one], the Emax result is on record as “++++ (Emax>300)” and the EC50 is 0.05 to 0.5 µM.
Take `Cc1nc2cc(N3CCO[C@H](c4nccs4)C3)nc(-c3ccc(Cl)cc3F)c2c(=O)n1C` [Example 198, (S)-5-(4-chloro-2-fluorophenyl)-2,3-dimethyl-7-(2-(thiazol-2-yl)morpholino)pyrido[4,3-d]pyrimidin-4(3H)-one]: the Emax entry was “++++ (Emax>300)” and the concentration giving a half-maximal response (EC50) was in the range of 0.5 to 3 µM.
Regarding `Cc1nc([C@@H]2CN(c3cc4nc(C)n(C)c(=O)c4c(-c4ccc(Cl)cc4F)n3)CCO2)no1` [Example 200, (S)-5-(4-chloro-2-fluorophenyl)-2,3-dimethyl-7-(2-(5-methyl-1,2,4-oxadiazol-3-yl)morpholino)pyrido[4,3-d]pyrimidin-4(3H)-one], the Emax entry is reported as “++++ (Emax>300)” and the EC50 was 0.05 to 0.5 µM.
For the compound `Cc1nc2cc(N3CCO[C@H](c4noc(C5CC5)n4)C3)nc(-c3ccc(Cl)cc3F)c2c(=O)n1C` [Example 201, (S)-5-(4-chloro-2-fluorophenyl)-7-(2-(5-cyclopropyl-1,2,4-oxadiazol-3-yl)morpholino)-2,3-dimethylpyrido[4,3-d]pyrimidin-4(3H)-one], the Emax entry was “++++ (Emax>300)” and the EC50 was 0.05 to 0.5 µM.
Regarding `Cc1nc2cc(N3CC[C@H](c4cnn(C)c4)C3)nc(-c3ccc(Cl)cc3F)c2c(=O)n1C` [Example 202, (R)-5-(4-chloro-2-fluorophenyl)-2,3-dimethyl-7-(3-(1-methyl-1H-pyrazol-4-yl)pyrrolidin-1-yl)pyrido[4,3-d]pyrimidin-4(3H)-one], the Emax entry was “+++ (Emax>200 and ≤300)”; the EC50 is 3 to 100 µM.
Turning to `Cc1nc2cc(N3CC[C@H](n4cccn4)C3)nc(-c3ccc(Cl)cc3F)c2c(=O)n1C` [Example 203, (S)-7-(3-(1H-pyrazol-1-yl)pyrrolidin-1-yl)-5-(4-chloro-2-fluorophenyl)-2,3-dimethylpyrido[4,3-d]pyrimidin-4(3H)-one], the Emax entry is “+ (Emax>45 and ≤100)”; the EC50 was in the range of 3 to 100 µM.
As to `Cc1cnn([C@H]2CCN(c3cc4nc(C)n(C)c(=O)c4c(-c4ccc(Cl)cc4F)n3)C2)c1` [Example 204, (S)-5-(4-chloro-2-fluorophenyl)-2,3-dimethyl-7-(3-(4-methyl-1H-pyrazol-1-yl)pyrrolidin-1-yl)pyrido[4,3-d]pyrimidin-4(3H)-one], the Emax entry is “+ (Emax>45 and ≤100)”; the EC50 was in the range of 3 to 100 µM.
Regarding `Cc1nc2cc(N3CC[C@H](c4ccccn4)C3)nc(-c3ccc(Cl)cc3F)c2c(=O)n1C` [Example 205, (S)-5-(4-chloro-2-fluorophenyl)-2,3-dimethyl-7-(3-(pyridin-2-yl)pyrrolidin-1-yl)pyrido[4,3-d]pyrimidin-4(3H)-one], the Emax entry is “+++ (Emax>200 and ≤300)”; the EC50 fell in the range of 3 to 100 µM.
Take `Cc1nc2cc(N3CC[C@H](c4ccccc4)C3)nc(-c3ccc(Cl)cc3F)c2c(=O)n1C` [Example 206, (R)-5-(4-chloro-2-fluorophenyl)-2,3-dimethyl-7-(3-phenylpyrrolidin-1-yl)pyrido[4,3-d]pyrimidin-4(3H)-one]: the Emax result is “++ (Emax>100 and ≤200)”; the EC50 was in the range of 3 to 100 µM.
Regarding `Cc1nc2cc(N3CC[C@H](C4CC4)C3)nc(-c3ccc(Cl)cc3F)c2c(=O)n1C` [Example 207, (R)-5-(4-chloro-2-fluorophenyl)-7-(3-cyclopropylpyrrolidin-1-yl)-2,3-dimethylpyrido[4,3-d]pyrimidin-4(3H)-one], the Emax entry was “++ (Emax>100 and ≤200)”; the EC50 was in the range of 3 to 100 µM.
As to `Cc1nc2cc(N3CC[C@H](N4CCOCC4)C3)nc(-c3ccc(Cl)cc3F)c2c(=O)n1C` [Example 208, (S)-5-(4-chloro-2-fluorophenyl)-2,3-dimethyl-7-(3-morpholinopyrrolidin-1-yl)pyrido[4,3-d]pyrimidin-4(3H)-one], the Emax result was “++ (Emax>100 and ≤200)”; the EC50 fell in the range of 3 to 100 µM.
`Cc1nc2cc(N3CCO[C@H](c4ccccn4)C3)nc(-c3ccc(Cl)cc3F)c2c(=O)n1C` [Example 209, (S)-5-(4-chloro-2-fluorophenyl)-2,3-dimethyl-7-(2-(pyridin-2-yl)morpholino)pyrido[4,3-d]pyrimidin-4(3H)-one]: the Emax entry was “+++ (Emax>200 and ≤300)”; the EC50 lay within 0.5 to 3 µM.
`Cc1nc2cc(N3CCO[C@H](c4cccnc4)C3)nc(-c3ccc(Cl)cc3F)c2c(=O)n1C` [Example 210, (R)-5-(4-chloro-2-fluorophenyl)-2,3-dimethyl-7-(2-(pyridin-3-yl)morpholino)pyrido[4,3-d]pyrimidin-4(3H)-one]: the Emax result is “++++ (Emax>300)” and the EC50 is 0.05 to 0.5 µM.
Turning to `Cc1nc2cc(N3CCO[C@H](c4cnn(C)c4)C3)nc(-c3ccc(Cl)cn3)c2c(=O)n1C` [Example 211, (R)-5-(5-chloropyridin-2-yl)-2,3-dimethyl-7-(2-(1-methyl-1H-pyrazol-4-yl)morpholino)pyrido[4,3-d]pyrimidin-4(3H)-one], the Emax entry was “+++ (Emax>200 and ≤300)”; the EC50 lay in the range of 3 to 100 µM.
Regarding `Cc1nc2cc(N3CCO[C@@H](c4cnn(C)c4)C3)nc(-c3ccc(Cl)cn3)c2c(=O)n1C` [Example 212, (S)-5-(5-chloropyridin-2-yl)-2,3-dimethyl-7-(2-(1-methyl-1H-pyrazol-4-yl)morpholino)pyrido[4,3-d]pyrimidin-4(3H)-one], the Emax entry was “++++ (Emax>300)” and the EC50 lay within 3 to 100 µM.
In the same order, the values of `Cc1nc2cc(N3CCC[C@H](c4ccccc4)C3)nc(-c3ccc(Cl)cc3F)c2c(=O)n1C` [Example 213, (R)-5-(4-chloro-2-fluorophenyl)-2,3-dimethyl-7-(3-phenylpiperidin-1-yl)pyrido[4,3-d]pyrimidin-4(3H)-one] are “++++ (Emax>300)” and 3 to 100 µM.
Regarding `Cc1nc2cc(N3CCC[C@H](c4cnn(C)c4)C3)nc(-c3ccc(Cl)cc3F)c2c(=O)n1C` [Example 214, (R)-5-(4-chloro-2-fluorophenyl)-2,3-dimethyl-7-(3-(1-methyl-1H-pyrazol-4-yl)piperidin-1-yl)pyrido[4,3-d]pyrimidin-4(3H)-one], the Emax entry is on record as “++++ (Emax>300)” and the EC50 fell in the range of 0.05 to 0.5 µM.
Regarding `CCCn1c(C)nc2cc(N3CCO[C@H](c4cnn(C)c4)C3)nc(-c3ncc(Cl)cc3F)c2c1=O` [Example 215, (R)-5-(5-chloro-3-fluoropyridin-2-yl)-2-methyl-7-(2-(1-methyl-1H-pyrazol-4-yl)morpholino)-3-propylpyrido[4,3-d]pyrimidin-4(3H)-one], the Emax entry is reported as “++++ (Emax>300)” and the EC50 was in the range of 3 to 100 µM.

What is called EC50 is the concentration needed to bring the measured effect to its halfway point.
